Assays:
[1] = test system: Keratinocytes from adult human skin; assay: Growth inhibition against keratinocytes, [3H]thymidine incorporation (Test Example 4); assay type: cell-based; settings: relative inhibition = IC50 of active vitamin D3 / IC50 of test compound
Description: Keratinocytes from adult human skin (Clonetics) were seeded in 96-well plates (COSTAR 3595) at a cell density of 1×10^3/well. The wells were then supplemented with the given concentrations of active vitamin D3 (1α,25 (OH)2D3) or Compounds 6 to 12, followed by incubation in KGM-2 medium at a cell density of 1×10^3 cells/200 μl/well for 3 days at 37° C. in 5% CO2 and 95% air. [^3H]Thymidine was added to each well (7.4 kBq/well) and the plates were further incubated for 1 day. After removal of the medium, each well was treated with 0.05% trypsin/0.53 mM EDTA to strip the cells. The amount of [^3H]thymidine incorporated into the cells was determined with a liquid scintillation counter (1450 MicroBeta, Wallac). […] Growth inhibition against keratinocytes in the table was expressed as a relative value of each compound compared to active vitamin D3: Relative inhibition=(IC50 (mol/l) of active vitamin D3)/(IC50 (mol/l) of test compound).

[2] = Blood ionized calcium level in mice after percutaneous administration (Test Examples 1 and 3); assay type: in vivo; settings: Balb/c mice, percutaneous single application, dose 1000 μg/kg, blood taken two days after administration
Description: Eight week old male Balb/c mice were percutaneously administered with active vitamin D3 (1α,25 (OH)2D3, 125 μg/ml in ethanol) or Compounds 1 to 5 (vitamin D derivatives prepared in the above Examples, 500 μg/ml in ethanol) or ethanol alone (as a control). These samples were applied once to the dorsal skin (about 1.5×2.0 cm^2) of the mice in a volume of 2 ml/kg. Each of the mice was then fitted with a necklace harness in order to avoid oral ingestion. On the next day, the administered sites were cleaned and the necklace harnesses were removed. Two days after administration, blood was taken from each mouse and assayed for ionized calcium level by the ion selective electrode method. The assay was performed in groups of 3 mice. […] Ionized calcium levels in the table are expressed as mean values.
The same procedures as shown in Test Example 1 were repeated to assay blood ionized calcium levels in mice, except that Compounds 6 to 12 were used as vitamin D derivatives. […] Ionized calcium levels in the table are expressed as mean values.

[3] = test system: Keratinocytes from human neonatal foreskin; assay: Growth inhibition against human keratinocytes, [3H]thymidine uptake (Test Example 2); assay type: cell-based; settings: relative inhibition = IC50 of active vitamin D3 / IC50 of each compound
Description: Keratinocytes from human neonatal foreskin (Clonetics) were seeded in 96-well plates (COSTAR 3595) at a cell density of 2×10^3/well. The wells were then supplemented with the given concentrations of active vitamin D3 (1α,25 (OH)2D3) or Compounds 1 to 5, followed by incubation in KGM-2 medium at a cell density of 2×10^3 cells/200 μl/well for 3 days at 37° C. in 5% CO2 and 95% air. [^3H]Thymidine was added to each well (7.4 kBq/well) and the plates were further incubated for 1 day. Each well was washed once with calcium- and magnesium-free phosphate buffer (Dulbecco's PBS(−), Nissui, code 05913, pH 7.3-7.65) and then treated with 0.25% trypsin to strip the cells. The [^3H]thymidine uptake of the cells was determined by a liquid scintillation counter (1450 MicroBeta, Wallac). […] Growth inhibition against human keratinocytes in the table was expressed as a relative value of each compound compared to active vitamin D3: Relative inhibition=(IC50 (mol/l) of active vitamin D3)/(IC50 (mol/l) of each compound).

Row | Molecule | Growth inhibition against human keratinocytes (relative value) [1] | Blood ionized calcium level ([2]; Test Example 3, mean values) [mmol/L] | Blood ionized calcium level ([2]; Test Example 1, mean of 3 mice) [mmol/L] | Growth inhibition against human keratinocytes (relative value) [3]
1 | 1α,3β-dihydroxy-20(S)-(1,1-dimethylhexyloxycarbonylmethoxy)-9,10-secopregna-5,7,10(19),16-tetraene [Compound 10] | 1.6 | 1.43 |  | 
2 | 1α,3β-dihydroxy-20(S)-(1-isopropyl-2-methylpropoxycarbonylmethoxy)-9,10-secopregna-5,7,10(19),16-tetraene [Compound 7] | 0.4 | 1.28 |  | 
3 | 1α,3β-dihydroxy-20(S)-(N-tert-butyl-N-methylaminocarbonylmethoxy)-9,10-secopregna-5,7,10(19),16-tetraene [Compound 2] |  |  | 2.27 | 5.9
4 | 1α,3β-dihydroxy-20(S)-(N-tert-butylaminocarbonylmethoxy)-9,10-secopregna-5,7,10(19),16-tetraene [Compound 4] |  |  | 2.16 | 7.0
5 | 1α,25(OH)2D3 | 1.0 |  |  | 1.0
6 | 20(S)-(tert-butoxycarbonylmethoxy)-1α,3β-dihydroxy-9,10-secopregna-5,7,10(19),16-tetraene [Compound 1] |  |  | 1.65 | 2.0
7 | C=C1/C(=C\C=C2/CCC[C@]3(C)C([C@H](C)OCCC(=O)OC(C)(C)C)=CC[C@@H]23)C[C@@H](O)C[C@@H]1O [Compound 3, 1α,3β-dihydroxy-20(S)-(tert-butoxycarbonylethoxy)-9,10-secopregna-5,7,10(19),16-tetraene] |  |  |  | 0.5
8 | C=C1C(=CC=C2CCCC3(C)C(C(C)OCC(=O)OC(C)C)=CCC23)CC(O)CC1O [Compound 5, 1α,3β-dihydroxy-20(S)-(isopropoxycarbonylmethoxy)-9,10-secopregna-5,7,10(19),16-tetraene] |  |  | 1.35 | 0.3
9 | C=C1/C(=C\C=C2/CCC[C@]3(C)C([C@H](C)OCC(=O)OC(C)(CC)CC)=CC[C@@H]23)C[C@@H](O)C[C@@H]1O [Compound 6, 1α,3β-dihydroxy-20(S)-(1-ethyl-1-methylpropoxycarbonylmethoxy)-9,10-secopregna-5,7,10(19),16-tetraene] | 12.0 | 1.57 |  | 
10 | C=C1C(=CC=C2CCCC3(C)C(C(C)OCC(=O)OC(C)(C)CCC)=CCC23)CC(O)CC1O [Compound 8, 1α,3β-dihydroxy-20(S)-(1,1-dimethylbutoxycarbonylmethoxy)-9,10-secopregna-5,7,10(19),16-tetraene] | 2.5 | 1.39 |  | 
11 | C=C1C(=CC=C2CCCC3(C)C2CCC3C(C)OCC(=O)OC(C)(CC)CC)CC(O)CC1O [Compound 9, 1α,3β-dihydroxy-20(S)-(1-ethyl-1-methylpropoxycarbonylmethoxy)-9,10-secopregna-5,7,10(19)-triene] | 0.7 | 1.55 |  | 
12 | C=C1C(=CC=C2CCCC3(C)C(C(C)OCCC(=O)OC(C)(CC)CC)=CCC23)CC(O)CC1O [Compound 11, 1α,3β-dihydroxy-20(S)-{2-(1-ethyl-1-methylpropoxycarbonyl)ethoxy}-9,10-secopregna-5,7,10(19),16-tetraene] | 0.4 | 1.42 |  | 
13 | C=C1/C(=C\C=C2/CCC[C@]3(C)C([C@H](C)OCC(=O)NCC(F)(F)C(F)(F)F)=CC[C@@H]23)C[C@@H](O)C[C@@H]1O [Compound 12, {(1α,3β-dihydroxy-9,10-secopregna-5,7,10(19),16-tetraen-20(S)-yl)oxy}-N-(2,2,3,3,3-pentafluoropropyl)acetamide] | 8.3 | 1.58 |  | 

Reference: patent US7985744B2, “Vitamin D derivatives” (Chugai Seiyaku Kabushiki Kaisha, priority 2000, dated 2011)
